Data taken from patent EP4792822A1, “USE OF PEPTIDE AMIDE COMPOUND IN PREPARATION OF DRUG FOR […] AND VOMITING” (Haisco Pharmaceutical Group Co., Ltd., priority 2023, dated 2025).

System: subjects undergoing elective abdominal surgery under general anaesthesia
Assay: Example 2: placebo/active-controlled clinical study of compound 1 injection for postoperative analgesia (flurbiprofen axetil rescue; nausea and vomiting recorded)
Assay type: in vivo, patients
Procedure: This study was a multicentre, randomised, double-blind, placebo/active-controlled study. About 387 subjects undergoing elective abdominal surgery under general anaesthesia were planned to be enrolled and randomised to three groups: the compound 1 group (129 subjects), the tramadol group (129 subjects), and the placebo group (129 subjects).
After the end of surgery, MOAA/S scores were assessed every 5 ± 1 min. Once the subjects regained consciousness (defined as the first MOAA/S score of 5), the first resting pain intensity assessment was initiated within 5 min [using the numeric rating scale (NRS), where 0-10 represent varying degrees of pain: 0 represents no pain, higher numbers represent more severe pain, and 10 represents the most severe pain]. It was recommended that the interval between two NRS assessments not exceed 30 min. Within 4 h after the end of surgery, subjects who met all inclusion criteria and none of the exclusion criteria were randomised at a 1 : 1 : 1 ratio into the compound 1 group, the tramadol group or the placebo group. It was recommended that randomisation be performed within 10 min after the first NRS score ≥ 4.
After successful randomisation, to prevent the subjects from enduring pain for a long time, the first dose of compound 1 injection (1 µg/kg/dose), tramadol hydrochloride injection (50 mg/dose), or placebo injection was administered to the subjects by the investigator as soon as possible (recommended within 15 min after successful randomisation). The end time of the first postoperative administration of the study drug was recorded as 0 min. At 8 h (± 15 min) and 16 h (± 15 min) after the end of the first administration, a single corresponding dose of the compound 1 injection, tramadol hydrochloride injection, or placebo injection was administered to the subjects, for a total of three administrations.
Resting NRS score assessments were performed in subjects at 15 min ± 5 min, 30 min ± 5 min, 1 h ± 5 min, 2 h ± 15 min, 4 h ± 15 min, 8 h ± 30 min (within 30 min before the second administration of the study drug), 12 h ± 30 min, 16 h ± 30 min (within 30 min before the third administration of the study drug), 20 h ± 30 min, and 24 h ± 1 h after the end of the first administration of the study drug. The NRS score for resting pain refers to the NRS score assessed when the subject is at rest (e.g., sitting or lying still). If the subject was unconscious at a scheduled NRS assessment time point, the score was recorded as follows: if the previous NRS score was ≥ 2, the current NRS score was recorded as 2; if the previous NRS score was < 2, the current NRS score was recorded as the previous score. Meanwhile, it was documented that the subject was unconscious at the time of assessment.
A flurbiprofen axetil injection was administered via intravenous injection for rescue treatment if the subject complained of pain at any time point after the first administration of the study drug, and the resting pain NRS score was ≥ 4. It was recommended that the time from the subject's NRS assessment to actual administration of flurbiprofen axetil injection be ≤ 30 min; an initial intravenous dose of 50 mg be administered, followed by additional doses as needed. It was also recommended that the interval between two rescue treatments be ≥ 3 h and that the interval between rescue medication and study drug administration be ≥ 1 h. However, rescue treatment could be given at any time for severe pain. […] Rescue details (including resting NRS score before rescue, the time of each use of rescue medication, the dosage of rescue medication, etc.) were recorded truthfully.
Prophylactic antiemetic treatment was prohibited during the study. After the first postoperative administration, the investigator administered antiemetic agents based on the occurrence of nausea and vomiting in the subject, and the dosage of the antiemetic agents was recorded. […]

[1] = Example 2, safety analysis set, N = 129, 1 µg/kg/dose, three administrations
[2] = Example 2, listed as compound 1
[3] = compared with tramadol and placebo
[4] = within 0-12 h and 0-24 h after the first postoperative administration, compared with tramadol and placebo
[5] = within 0-24 h, compared with tramadol and placebo

For `CC(=O)N1CC2(CCN(C(=O)[C@@H](CCCCN)NC(=O)[C@@H](CC(C)C)NC(=O)[C@@H](Cc3ccccc3)NC(=O)[C@H](N)Cc3ccccc3)CC2)C1` [Compound 1, (2R)-N-[(1R)-1-(2-acetyl-2,7-diazaspiro[3.5]nonane-7-carbonyl)-5-amino-pentyl]-2-[[(2R)-2-[[(2R)-2-amino-3-phenyl-propionyl]amino]-3-phenylpropionyl]amino]-4-methyl-pentanamide], the “Change in incidence of nausea relative to placebo” value (Example 2) was 50% reduction, the “Change in incidence of vomiting relative to placebo” value (Example 2) was 47.9% reduction and the “overall safety and tolerability” value (Example 2) was “good overall safety and tolerability”. For the same molecule, the serious adverse events (Example 2) was “No serious adverse events occurred”, the “Nausea (incidence)” value [1] was 10.1% and the “Vomiting (incidence)” value [1] was 8.5%. The “Change in incidence of nausea relative to placebo” value [2] was 50 % reduction, the “Change in incidence of vomiting relative to placebo” value [2] was 47.9 % reduction and the “SPID0-24 h after the first postoperative administration” value (compared with placebo) was “superior to that in the placebo group”. For the same molecule, the “PID at each time point” value [3] was “comparable to those in the tramadol group and significantly lower than those in the placebo group”, the “SPID0-12 h after the first postoperative administration” value [3] was “comparable to those in the tramadol group and significantly lower than those in the placebo group” and the duration of analgesia [3] was “comparable to those in the tramadol group and significantly longer than those in the placebo group”. For the same molecule, the “incidence of decreased thyroid-stimulating hormone” value [3] was “slightly higher than that in the tramadol group and the placebo group”, the “incidences of nausea and vomiting” value [3] was “lower than those in the tramadol group and the placebo group” and the “subject and investigator satisfaction scores for postoperative analgesia” value [3] was “generally comparable to those in the tramadol group and significantly higher than those in the placebo group”. The “time to the first use of rescue analgesic agents” value [3] was “comparable to those in the tramadol group and significantly longer than those in the placebo group”, the “SPID0-24 h after the first postoperative administration” value (compared with tramadol injection (50 mg/dose)) was “non-inferior to that in the tramadol injection group” and the “effect on PONV in patients after abdominal surgery” value (summary of both Phase III studies (Example 2)) was “preventive and/or alleviating effect on PONV”. For the same molecule, the “mean cumulative dosage of rescue analgesic agents” value [4] was “comparable to those in the tramadol group and significantly lower than those in the placebo group”, the “proportion of subjects with NRS scores ≤ 3” value [4] was “generally comparable to those in the tramadol group and significantly higher than those in the placebo group” and the “cumulative dosage of other antiemetic agents” value [5] was “higher than those in the tramadol group and the placebo group”. For the same molecule, the “proportion of subjects using other antiemetic agents” value [5] was “slightly lower than those in the tramadol group and the placebo group”, the “proportion of subjects using tropisetron and the cumulative dosage” value (within 0-24 h after the first administration, compared with tramadol and placebo) was “significantly lower than those in the tramadol group and the placebo group” and the “proportion of subjects using rescue analgesic agents” value (within 0-24 h after the first postoperative administration, compared with tramadol and placebo) was “comparable to those in the tramadol group and significantly lower than those in the placebo group”.
